Tested on: HepG2, simvastatin, LDLR mRNA qPCR, 6 h
Experiment: statin-induced LDLR expression modulation – cell-based, HepG2, RT-PCR, simvastatin, cherry-pick, mechanism study for Trib1 inducer project, late-stage follow-up (AID 1053154)
Conditions: active compounds read high

Compound	fold change
CN1C(=O)c2cc(NC(=O)c3ccc(C(F)(F)F)cc3)ccc2OC[C@@H]2O[C@H](CC(=O)NC3Cc4ccccc4C3)CC[C@@H]21	2
CN1C(=O)c2cc(NC(=O)c3ccc(C(F)(F)F)cc3)ccc2OC[C@@H]2O[C@@H](CC(=O)NC3Cc4ccccc4C3)CC[C@@H]21	10
